Series [1] has as its target Serine/threonine-protein kinase/endoribonuclease IRE1 (Mus musculus, UniProt Q9EQY0). Put plainly: Inhibition of mouse IRE1 assessed as reduction in XBP1 splicing using 5'-Alexa Fluor 647-CAUGUCCGCAGCGCAUG-BHQ1-3' as substrate preincubated for 30 mins followed by substrate addition by FRET assay.
The nature of series [2]: Drug excretion in human urine assessed as time of maximum urinary excretion of pyridoxic-acid at 4 mg, po. In kind it is ADME, tissue-based. The following applies: in vivo.
Series [3] is described as follows: Drug excretion in human urine assessed as maximum urinary excretion of pyridoxic-acid at 4 mg, po. In kind it is ADME. The following applies: in vivo, 24 h.
A short description of series [4]: Drug metabolism in human assessed as pyridoxal-5-phosphate Tmax at 4 mg, po. In kind it is ADME. The following applies: in vivo.
Series [5] in a line: Tmax in human at 4 mg, po. In kind it is ADME. The following applies: in vivo.
Series [6] in a line: Drug excretion in human urine at 4 mg, po measured within 24 hrs. The following applies: in vivo. The series is classed as ADME, organism-based.
Series [7] in a line: Cmax in human at 4 mg, po. In kind it is ADME. Also on record: route oral, dose 4 mg. The following applies: in vivo.
Series [8] in a line: Drug metabolism in human assessed as pyridoxal-5-phosphate Cmax at 4 mg, po. In kind it is ADME. Details: route oral, dose 4 mg. The following applies: in vivo.
Series [9] in a line: Half life in dog plasma at 5 ug/ml incubated for 1 to 24 hrs by LC/MS/MS method. The series is classed as ADME, cell-free, Canis lupus familiaris. The following applies: time 1-24 hrs, dose 5 µg/ml.
Series [10] in a line: Half life in mouse plasma at 5 ug/ml incubated for 1 to 24 hrs by LC/MS/MS method. The series is classed as ADME, cell-free. The following applies: time 1-24 hrs, dose 5 µg/ml.
A short description of series [11]: Tmax in human at 20 mg/kg, po measured up to 30 hrs by HPLC method. In kind it is ADME, organism-based. The following applies: in vivo.
Series [12] in a line: Half life in human at 40 mg, po BID cotreated with paclitaxel by HPLC method. In kind it is ADME, organism-based. The following applies: in vivo.
The nature of series [13]: AUC (0 to infinity) in human at 20 mg/kg, po measured up to 30 hrs by HPLC method. The series is classed as ADME, organism-based. The following applies: in vivo. Details: route oral, dose 20 mg/kg, time <=30.
Series [14] can be described thus: Half life in human at 20 mg/kg, po measured up to 240 hrs by HPLC method. In kind it is ADME, organism-based. The following applies: in vivo.
The nature of series [15]: AUC (0 to infinity) in human at 20 mg, po measured up to 240 hrs by HPLC method. In kind it is ADME, organism-based. Details: route oral, dose 20 mg, time <=240. The following applies: in vivo.
The nature of series [16]: Tmax in human at 20 mg, po measured up to 240 hrs by HPLC method. In kind it is ADME, organism-based. The following applies: in vivo.
Series [17] in a line: Clearance in human at 40 mg, po BID cotreated with paclitaxel by HPLC method. The series is classed as ADME, organism-based. The following applies: in vivo.
The nature of series [18]: Protein binding in human plasma. The series is classed as ADME, cell-free.
A short description of series [19]: Cmax in human at 20 mg, po measured up to 240 hrs by HPLC method. Also on record: route oral, dose 20 mg, time <=240. The following applies: in vivo. In kind it is ADME, organism-based.
The nature of series [20]: Cmax in human at 20 mg/kg, po measured up to 30 hrs by HPLC method. Details: route oral, dose 20 mg/kg, time <=30. The series is classed as ADME, organism-based. The following applies: in vivo.
The nature of series [21]: Clearance in dog at 0.5 mg/kg, iv by HPLC method. The series is classed as ADME, organism-based, Canis lupus familiaris. The following applies: in vivo.
The nature of series [22]: Half life in human plasma at 5 ug/ml incubated for 1 to 24 hrs by LC/MS/MS method. The series is classed as ADME, cell-free. The following applies: time 1-24 hrs, dose 5 µg/ml.
Series [23] in a line: Cmax in human at 40 mg, po BID cotreated with paclitaxel by HPLC method. The following applies: in vivo. In kind it is ADME, organism-based. Also on record: route oral, dose 40 mg.
Series [24] in a line: AUC (0 to 10 hrs) in human at 40 mg, po BID cotreated with paclitaxel by HPLC method. In kind it is ADME, organism-based. Details: time < 10 hr, route oral, dose 40 mg. The following applies: in vivo.
Series [25] in a line: Half life in human at 20 mg/kg, po measured up to 30 hrs by HPLC method. In kind it is ADME, organism-based. The following applies: in vivo.
The nature of series [26]: Protein binding in human plasma incubated for 240 mins by equilibrium dialysis. The series is classed as ADME, cell-free. The following applies: read-out: PPB (converted). (In general: In equilibrium dialysis free small molecules cross a membrane that holds back macromolecules.)
The nature of series [27]: Drug excretion in human assessed as time of maximum urinary excretion of pyridoxic-acid at 3.36 mg, po. In kind it is ADME. The following applies: in vivo.
Series [28] is described as follows: Cmax in human at 3.36 mg, po measured for 7 days. The series is classed as ADME, organism-based. Also on record: route oral, time 7 day, dose 3.36 mg. The following applies: in vivo.
Series [29] can be described thus: Drug metabolism in human assessed as pyridoxal-5-phosphate Cmax at 3.36 mg, po. The following applies: in vivo. Also on record: route oral, dose 3.36 mg. In kind it is ADME.
A short description of series [30]: Drug metabolism in human assessed as pyridoxal-5-phosphate Tmax at 3.36 mg, po. In kind it is ADME. The following applies: in vivo.
Series [31] can be described thus: Drug excretion in human urine at 3.36 mg, po measured within 24 hrs. In kind it is ADME, organism-based. The following applies: in vivo.
Series [32] in a line: Drug excretion in human urine assessed as maximum urinary excretion of pyridoxic-acid at 3.36 mg, po. The series is classed as ADME, tissue-based. The following applies: in vivo.
A short description of series [33]: Tmax in human at 3.36 mg, po. The following applies: in vivo. The series is classed as ADME.
Series [34] can be described thus: Half life in human at 0.7 mg/kg, po. The series is classed as ADME, organism-based. The following applies: in vivo.
Series [35] is described as follows: Drug excretion in human urine at 0.7 mg/kg, po measured after 8 to 24 hrs. In kind it is ADME, organism-based. The following applies: time 8-24 hrs, read-out: Drug excretion.
A short description of series [36]: Bioavailability in human at 10.3 mg. The series is classed as ADME, organism-based. The following applies: in vivo.
A short description of series [37]: Oral bioavailability in human at 0.7 mg/kg. The following applies: in vivo. The series is classed as ADME, organism-based.

Each structure is given as a SMILES string.

Serine/threonine-protein kinase/endoribonuclease IRE1, sequence (Q9EQY0 whole entry): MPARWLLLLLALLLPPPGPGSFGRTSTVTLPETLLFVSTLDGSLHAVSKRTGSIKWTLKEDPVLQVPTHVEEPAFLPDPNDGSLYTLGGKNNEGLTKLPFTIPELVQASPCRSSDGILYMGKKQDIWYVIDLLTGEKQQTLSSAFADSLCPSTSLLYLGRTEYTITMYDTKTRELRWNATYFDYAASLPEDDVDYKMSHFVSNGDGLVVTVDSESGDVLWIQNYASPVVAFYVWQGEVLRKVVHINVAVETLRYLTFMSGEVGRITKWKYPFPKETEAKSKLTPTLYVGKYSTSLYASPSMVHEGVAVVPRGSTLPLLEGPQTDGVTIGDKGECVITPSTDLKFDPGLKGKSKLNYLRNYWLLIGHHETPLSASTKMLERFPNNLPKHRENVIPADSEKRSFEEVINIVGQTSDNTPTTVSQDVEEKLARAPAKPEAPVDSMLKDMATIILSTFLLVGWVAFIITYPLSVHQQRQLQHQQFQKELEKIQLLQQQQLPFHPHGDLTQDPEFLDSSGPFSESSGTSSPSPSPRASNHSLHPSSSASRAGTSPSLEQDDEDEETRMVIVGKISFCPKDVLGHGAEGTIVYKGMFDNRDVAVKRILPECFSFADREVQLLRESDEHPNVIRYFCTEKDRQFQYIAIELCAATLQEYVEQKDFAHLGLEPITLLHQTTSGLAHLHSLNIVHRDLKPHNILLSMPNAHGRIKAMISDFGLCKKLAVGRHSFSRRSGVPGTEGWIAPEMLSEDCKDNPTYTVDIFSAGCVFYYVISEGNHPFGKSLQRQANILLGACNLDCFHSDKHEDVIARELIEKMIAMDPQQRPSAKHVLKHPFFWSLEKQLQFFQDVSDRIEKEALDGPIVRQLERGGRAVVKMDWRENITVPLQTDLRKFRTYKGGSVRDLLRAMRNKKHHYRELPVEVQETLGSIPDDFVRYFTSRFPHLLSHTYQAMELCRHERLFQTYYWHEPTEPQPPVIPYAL

What is called IC50 is the concentration that gives 50% inhibition. As to `COc1cc2c(C)c(CC(=O)N3CCOCC3)c(=O)oc2c(C=O)c1O`, the concentration for half-maximal inhibition (IC50) in [1] was under 0.1 µM.

In general, Tmax refers to the time at which the peak concentration occurs. What is called Cmax is the peak of the concentration-time curve. As to `Cc1ncc(CO)c(CO)c1O` [PYRIDOXINE], the Time in [2] was found to be 3 h. The figures for the Drug excretion in [3] and in [6] were 0.7 µmol/h and 1.5 µmol, respectively. Besides, the Tmax in [4] is 3 h; in series [5], 1 h. The figures for the Cmax in series [7] and in [8] were 0.06 µM and 0.03 µM, respectively.

As usually defined, the half-life is how long it takes for the measured level to halve. The AUC(0-inf) is the area under the concentration-time curve extrapolated to infinity. Read a high AUC(0-inf) as high exposure. One may read the CL/F as clearance divided by bioavailability, as obtained after extravascular dosing. By clearance is commonly meant the volume of plasma or blood freed of the substance per unit of time. Low values mean a low capacity for elimination, high ones a high capacity for elimination. By AUC is commonly meant concentration integrated over time. With `Cc1cc2c(C(C)C)c(O)c(O)c(C=O)c2c(O)c1-c1c(C)cc2c(C(C)C)c(O)c(O)c(C=O)c2c1O` [GOSSYPOL], the half-life at 5 ug/ml in series [9], in series [10] and in series [22] was under 1 h throughout. The Tmax in series [11] and in series [16] was 4.6 h throughout. For the same compound, the half-life in series [12] is 3.33 h; in [14], 133 h; in [25], 4.55 h. Also, the total exposure AUC(0-inf) in [13] turned out to be 6.08 µM·h; in series [15], 29.2 µM·h. Further, in series [17], the apparent clearance CL/F is 0.15 L/h/kg. Besides, in [18], the PPB came out at 63%. The fraction unbound in series [18] (read-out: PPB (converted)) is 0.61. Also, the highest concentration (Cmax) came out at 1.75 µM in [19], 0.799 µM in series [20] and 1.27 µM in series [23]. This compound also gave a clearance in series [21] of 0.05 L/h/kg. The same compound returned a CL in series [21] (0.5 mg/kg) of 0.05 L/h/kg. Besides, the exposure (AUC) at 10 h in series [24] was found to be 6.81 µM·h.

In the case of `CN1CCC(=C2c3ccccc3CCn3c(C(=O)O)cnc32)CC1`, the fraction unbound at 4 h in [26] was 0.37.

Take `Cc1ncc(CO)c(C=O)c1O` [PYRIDOXAL]: in [27], the Time stood at 1 h. The peak concentration (Cmax) in series [28] was determined as 0.28 µM; in series [29] it was 0.018 µM. Moreover, the figures for the time of peak concentration (Tmax) in [30] and in [33] were 1 h and 0.5 h, respectively. Moreover, the Drug excretion in [31] came out at 1.2 µmol; in series [32], 1.6 µmol/h.

One may read the bioavailability as dose-corrected exposure relative to a reference, in per cent. Compound `O=C/C=C/c1ccccc1` came in with a half-life in series [34] of under 4 h. Besides, in series [35], the dose excreted turned out to be 100%. For the same compound, the results for the bioavailability in series [36] and in series [37] were 9% and 100%, respectively.

On to `Cc1cc2c(C(C)C)c(O)c(O)cc2c(O)c1-c1c(C)cc2c(C(C)C)c(O)c(O)cc2c1O` [APOGOSSYPOL], for which the half-life at 5 ug/ml in series [9], in [10] and in series [22] was under 1 h throughout.

The record behind these values is ChEMBL document CHEMBL4813910, “Curse or Cure? A Perspective on the Developability of Aldehydes as Active Pharmaceutical Ingredients” (J Med Chem, 2020).
